Test results from ChEMBL document CHEMBL4414605 (J Med Chem, 2019).

Tests used:
[1] = biological target: T1, D(2) dopamine receptor (Homo sapiens, UniProt P14416)
Description: Displacement of PPHT-red from SNAP-tagged human D2LR expressed in CHOK1 cell membranes assessed as association rate constant by TR-FRET assay

[2] = biological target: T1, D(2) dopamine receptor; remark: listed apart in the source
Description: Displacement of PPHT-red from SNAP-tagged human D2LR expressed in CHOK1 cell membranes assessed as dissociation half-life by TR-FRET assay

[3] = biological target: T1, D(2) dopamine receptor; remark: listed apart in the source
Description: Displacement of PPHT-red from SNAP-tagged human D2LR expressed in CHOK1 cell membranes assessed as dissociation rate constant by TR-FRET assay

[4] = biological target: T1, D(2) dopamine receptor; remark: listed apart in the source
Description: Binding affinity to SNAP-tagged human D2LR expressed in CHOK1 cell membranes assessed as association rate constant by TR-FRET assay

[5] = biological target: T1, D(2) dopamine receptor; remark: listed apart in the source
Description: Binding affinity to SNAP-tagged human D2LR expressed in CHOK1 cell membranes assessed as dissociation rate constant by TR-FRET assay

[6] = biological target: T1, D(2) dopamine receptor; settings: 10 min, read-out: INH

T1 sequence (P14416 whole entry): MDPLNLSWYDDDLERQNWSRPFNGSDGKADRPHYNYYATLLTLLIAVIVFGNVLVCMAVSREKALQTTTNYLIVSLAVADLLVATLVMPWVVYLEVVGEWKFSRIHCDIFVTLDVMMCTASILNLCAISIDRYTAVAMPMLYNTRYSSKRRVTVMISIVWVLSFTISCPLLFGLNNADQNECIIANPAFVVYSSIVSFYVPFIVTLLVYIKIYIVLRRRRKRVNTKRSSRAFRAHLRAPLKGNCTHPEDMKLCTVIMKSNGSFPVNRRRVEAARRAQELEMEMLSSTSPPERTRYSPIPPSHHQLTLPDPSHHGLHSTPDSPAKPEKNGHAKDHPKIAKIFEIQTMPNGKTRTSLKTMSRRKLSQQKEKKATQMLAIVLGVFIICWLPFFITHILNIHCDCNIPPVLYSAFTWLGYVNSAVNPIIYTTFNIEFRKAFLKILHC

| SMILES | Ka [1] | T1/2 [2] [s] | Kdiss [3] [s⁻¹] | Ka [4] [×10⁶ /M/min] | Kdiss [5] [s⁻¹] | inhibition at 10 µM [6] [%] |
| --- | --- | --- | --- | --- | --- | --- |
| O=C(CCCN1CCC(O)(c2ccc(Cl)cc2)CC1)c1c(F)cccc1F | 1.84 ×10⁷ /M/min | 39.6 | 0.0182 | – | – | – |
| Cc1ccc(C2(O)CCN(CCCC(=O)c3ccc(F)cc3)CC2)cc1 | 1 ×10⁹ /M/min | 43.8 | 0.0163 | – | – | – |
| O=C(CCCN1CCC(O)(c2ccc(Cl)cc2)CC1)c1ccccc1 | 6.33 ×10⁸ /M/min | 40.2 | 0.0187 | – | – | – |
| OC(CCCN1CCC(O)(c2ccc(Cl)cc2)CC1)c1ccc(F)cc1 (stereo unspecified) | 6.19 ×10⁶ /M/min | 75 | 0.0095 | – | – | – |
| O=C(CCCN1CCC(O)(c2ccc(Cl)cc2)CC1)c1cc(F)ccc1F | 1.13 to 1.15 ×10⁷ /M/min | 34.8 to 37.8 | 0.019 to 0.0248 | – | – | – |
| COC1(c2ccc(Cl)cc2)CCN(CCCC(=O)c2ccc(F)cc2)CC1 | 3.6 ×10⁸ /M/min | 61.8 | 0.0113 | – | – | – |
| O=C(CCCN1CCC(O)(c2ccc(Cl)cc2)CC1)c1ccc(F)cc1F | 1.07 ×10⁷ /M/min | 30.6 | 0.0227 | – | – | – |
| OC1(c2ccc(Cl)cc2)CCN(CCCc2ccc(F)cc2)CC1 | 2.29 to 2.45 ×10⁷ /M/min | 27.6 to 34.2 | 0.0222 to 0.0257 | – | – | – |
| O=C(CCCN1CCC(O)(c2ccccc2-c2ccccc2Cl)CC1)c1ccc(F)cc1 | 3.25 ×10⁸ /M/min | 53.4 | 0.0137 | – | – | – |
| O=C(CCCN1CCC(O)(c2ccccc2Cl)CC1)c1ccc(F)cc1 | 3.54 ×10⁸ /M/min | 36.6 | 0.0193 | – | – | – |
| O=C(CCCN1CCC(O)(c2ccc(Cl)cc2)CC1)c1ccc(Cl)cc1 | 1.38 ×10⁸ /M/min | 60 | 0.0117 | – | – | – |
| OC1(c2ccc(Cl)cc2)CCN(CC/C=C\c2ccc(F)cc2)CC1 | 3.35 ×10⁷ /M/min | 34.8 | 0.0208 | – | – | – |
| OC1(c2ccc(Cl)cc2)CCN(CC[C@H]2C[C@H]2c2ccc(F)cc2)CC1 (racemic) | 4.47 ×10⁷ /M/min | 30.6 | 0.0228 | – | – | – |
| O=C(CCCN1CC=C(c2ccc(Cl)cc2)CC1)c1ccc(F)cc1 | 6.52 ×10⁷ /M/min | 65.4 | 0.0108 | – | – | – |
| OC1(c2ccc(Cl)cc2)CCN(CCCSc2ccc(F)cc2)CC1 | 4.99 ×10⁸ /M/min | 44.4 | 0.0165 | – | – | – |
| O=C(CCCN1CCN(c2ccc(Cl)cc2)CC1)c1ccc(F)cc1 | 2.86 ×10⁷ /M/min | 53.4 | 0.0133 | – | – | – |
| O=C(CCCN1CCC(c2ccc(Cl)cc2)CC1)c1ccc(F)cc1 | 4.31 ×10⁸ /M/min | 51.6 | 0.014 | – | – | – |
| O=C(CCCN1CCC(O)(c2ccccc2)CC1)c1ccccc1 | 2.28 ×10⁷ /M/min | 58.8 | 0.0118 | – | – | – |
| O=C(CCCN1CCC(O)(c2ccc(F)cc2)CC1)c1ccc(F)cc1 | 2.61 ×10⁸ /M/min | 55.2 | 0.013 | – | – | – |
| O=C(CCCN1CCC(O)(c2cc(Cl)ccc2Cl)CC1)c1ccc(F)cc1 | 5.29 ×10⁸ /M/min | 76.2 | 0.00933 | – | – | – |
| CCCN(CCc1ccccc1)C1CCc2c(O)cccc2C1 (racemic) | – | – | – | 9.21 | 0.00583 | – |
| O=C(CCCN1CCC2(c3ccc(Cl)cc3)CC2C1)c1ccc(F)cc1 (stereo unspecified) | 2.03 ×10⁹ /M/min | 141 | 0.005 | – | – | – |
| O=C(CCCN1CCC(O)(c2cc(Cl)cc(Cl)c2)CC1)c1ccc(F)cc1 | 6.58 ×10⁸ /M/min | 116 | 0.00717 | – | – | – |
| OC1(c2ccc(Cl)cc2)CCN(CCCCc2ccc(F)cc2)CC1 | 1.57 ×10⁸ /M/min | 37.8 | 0.0185 | – | – | – |
| O=C(CCCN1CCC(O)(c2ccc(Cl)c(Cl)c2)CC1)c1ccc(F)cc1 | 2.95 ×10⁹ /M/min | 100 | 0.007 | – | – | – |
| OC1(c2ccc(Cl)cc2)CCN(CCC#Cc2ccc(F)cc2)CC1 | 1.61 ×10⁷ /M/min | 41.4 | 0.0183 | – | – | – |

| SMILES | Ka [1] | T1/2 [2] [s] | Kdiss [3] [s⁻¹] | Ka [4] [×10⁶ /M/min] | Kdiss [5] [s⁻¹] | inhibition at 10 µM [6] [%] |
| --- | --- | --- | --- | --- | --- | --- |
| O=C(CCCCN1CCC(O)(c2ccc(Cl)cc2)CC1)c1ccc(F)cc1 | 1.42 to 1.8 ×10⁸ /M/min | 18 to 28.8 | 0.0275 to 0.0392 | – | – | – |
| O=C(CCN1CCC(O)(c2ccc(Cl)cc2)CC1)c1ccc(F)cc1 | 1.03 to 1.33 ×10⁷ /M/min | 25.8 to 34.2 | 0.0212 to 0.0325 | – | – | – |
| O=C(CCCN1CCC(O)(c2ccc(Cl)cc2)CC1)c1cccc(F)c1 | 2.55 to 2.64 ×10⁷ /M/min | 42 to 45.6 | 0.016 to 0.018 | – | – | – |
| O=C(CCCN1CCC(O)(c2ccc(Cl)cc2Cl)CC1)c1ccc(F)cc1 | 2.87 ×10⁸ /M/min | 69 | 0.0117 | – | – | – |
| O=C(CCCN1CCC(O)(c2ccccc2)CC1)c1ccc(F)cc1 | 1.22 ×10⁸ /M/min | 42.6 | 0.017 | – | – | – |
| O=C(CCCN1CCC(O)(c2ccc(Cl)cc2)CC1)c1cc(F)cc(F)c1 | 4.25 ×10⁶ /M/min | 47.4 | 0.0153 | – | – | – |
| O=C(CCCN1CCC(O)(c2ccc(Cl)cc2)CC1)c1ccc(F)c(F)c1 | – | 45 | 0.0172 | – | – | – |
| O=C(CCCN1CCC(O)(c2c(Cl)cccc2Cl)CC1)c1ccc(F)cc1 | 5.07 ×10⁸ /M/min | 40.2 | 0.0175 | – | – | – |
| O=C(CCCN1CCC(O)(c2ccc(Cl)cc2)CC1)c1ccccc1F | – | 41.4 | 0.0173 | – | – | – |
| O=C(CCCN1CCC(O)(c2ccc(Cl)cc2)CC1)c1cccc(F)c1F | 3.01 to 3.24 ×10⁷ /M/min | 24.6 to 36 | 0.0215 to 0.0283 | – | – | – |
| OC1(c2ccc(Cl)cc2)CCN(CC/C=C/c2ccc(F)cc2)CC1 | 6.39 ×10⁷ /M/min | 44.4 | 0.0127 | – | – | – |
| O=C(CCCN1CCC(O)(c2ccc(Cl)cc2)CC1)c1ccccc1Cl | 3.16 ×10⁸ /M/min | 45.6 | 0.0185 | – | – | – |
| OC1(c2ccc(Cl)cc2)CCN(CCCOc2ccc(F)cc2)CC1 | 1.22 ×10⁹ /M/min | 48.6 | 0.0152 | – | – | – |
| Cc1ccccc1C(=O)CCCN1CCC(O)(c2ccc(Cl)cc2)CC1 | 3.66 ×10⁸ /M/min | 60.6 | 0.0138 | – | – | – |
| O=C(CCCN1CCC(O)(c2ccc(F)cc2)CC1)c1ccc(Cl)cc1 | 4.17 ×10⁷ /M/min | 54.6 | 0.0128 | – | – | – |
| O=C(CCCN1CCC(O)(c2ccc(C(F)(F)F)cc2)CC1)c1ccc(F)cc1 | 1.36 ×10⁹ /M/min | 67.2 | 0.0103 | – | – | – |
| O=C(CCCN1CCC(O)(c2cccc(Cl)c2)CC1)c1ccc(F)cc1 | 6.32 ×10⁸ /M/min | 71.4 | 0.0107 | – | – | – |
| OC1(c2ccc(Cl)cc2)CCN(CC#Cc2ccc(F)cc2)CC1 | 3.37 ×10⁶ /M/min | 46.2 | 0.016 | – | – | – |
| CN(C)c1ccc(C2(O)CCN(CCCC(=O)c3ccc(F)cc3)CC2)cc1 | 1.64 ×10⁸ /M/min | 33.6 | 0.0208 | – | – | – |
| O=C(CCCN1CCC(c2ccccc2)CC1)c1ccc(F)cc1 | 8.99 ×10⁷ /M/min | 59.4 | 0.0118 | – | – | 20 |
| OC1(c2ccc(Cl)cc2)CCN(CCCC#Cc2ccc(F)cc2)CC1 | 6.41 ×10⁷ /M/min | 39 | 0.0192 | – | – | – |
| O=C(CCCN1CCC(O)(c2cccc(Cl)c2Cl)CC1)c1ccc(F)cc1 | 2.2 ×10⁹ /M/min | 137 | 0.005 | – | – | – |
| O=C(CCCN1[C@@H]2CC[C@H]1CC(O)(c1ccc(Cl)cc1)C2)c1ccc(F)cc1 (stereo partly specified) | 3.68 ×10⁹ /M/min | 215 | 0.00317 | – | – | – |
| OC1(c2ccc(Cl)cc2)CCN(CC[C@H]2C[C@@H]2c2ccc(F)cc2)CC1 (racemic) | 6.07 ×10⁸ /M/min | 49.2 | 0.0153 | – | – | – |
| OC1(c2ccc(Cl)cc2)CCN(CCCCCc2ccc(F)cc2)CC1 | 5.51 ×10⁷ /M/min | 36 | 0.0203 | – | – | – |
